Reference: PubChem BioAssay (NCI)
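Cells were grown in 96-well plates and exposed to each compound for 48 hours at five concentrations; endpoints were interpolated linearly between bracketing concentrations, or set to the highest concentration if not reached. Definition used: TGI = concentration required for complete inhibition of growth.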

Key:
Assay in all cases: NCI tumour cell line growth inhibition, 48 h
DLD-1 colon = tested on: DLD-1 colon
M19-MEL melanoma = tested on: M19-MEL melanoma
DMS 114 small cell lung = tested on: DMS 114 small cell lung
KM20L2 colon = tested on: KM20L2 colon
SN12K1 renal = tested on: SN12K1 renal
P388 leukemia = tested on: P388 leukemia
SNB-78 CNS = tested on: SNB-78 CNS
RXF-631 renal = tested on: RXF-631 renal

## c1ccc2[nH]c(CNc3ccc(C4C[Se]N=N4)cc3)nc2c1 (stereo unspecified)
DLD-1 colon
  TGI: > 100 µM
M19-MEL melanoma
  TGI: > 100 µM
DMS 114 small cell lung
  TGI: 72.6 µM

## CSc1nc2c(ncn2C2OC(CO)C(O)C(O)C2O)c(=O)[nH]1 (stereo unspecified)
KM20L2 colon
  TGI: > 100 µM
SN12K1 renal
  TGI: > 100 µM
DLD-1 colon
  TGI: > 100 µM
M19-MEL melanoma
  TGI: > 100 µM
P388 leukemia
  TGI: > 100 µM
SNB-78 CNS
  TGI: > 100 µM
DMS 114 small cell lung
  TGI: > 100 µM

## c1ccc2c(c1)CCCC/C2=N/OCC1CO1 (stereo unspecified)
KM20L2 colon
  TGI: > 100 µM
DLD-1 colon
  TGI: > 100 µM
SNB-78 CNS
  TGI: > 100 µM
DMS 114 small cell lung
  TGI: > 100 µM

## Nc1ccccc1C(=O)C(Br)C(Br)c1ccc2c(c1)OCO2 (stereo unspecified)
KM20L2 colon
  TGI: 31 µM
DLD-1 colon
  TGI: > 100 µM
M19-MEL melanoma
  TGI: 39.6 µM
SNB-78 CNS
  TGI: 81 µM
DMS 114 small cell lung
  TGI: 40.2 µM

## O=C1C2=C(CCC2)Nc2cccc3ncn1c23
KM20L2 colon
  TGI: > 100 µM
DLD-1 colon
  TGI: > 100 µM
M19-MEL melanoma
  TGI: > 100 µM
SNB-78 CNS
  TGI: > 100 µM
DMS 114 small cell lung
  TGI: > 100 µM

## O=C(NN1C(=O)CSC1c1cccc(F)c1)c1ccncc1 (stereo unspecified)
KM20L2 colon
  TGI: > 100 µM
RXF-631 renal
  TGI: > 100 µM
SNB-78 CNS
  TGI: > 100 µM
DMS 114 small cell lung
  TGI: > 100 µM

## Cc1ccc2oc(=O)c(-c3ccccc3)nc2c1
DLD-1 colon
  TGI: > 100 µM
M19-MEL melanoma
  TGI: 64.8 µM

## N#C/C(=C1\SC(N=Nc2ccc(Cl)cc2)C(=O)N1c1ccccc1)c1nc2ccccc2[nH]1 (stereo unspecified)
KM20L2 colon
  TGI: > 100 µM
DLD-1 colon
  TGI: > 100 µM
M19-MEL melanoma
  TGI: 95.4 µM
SNB-78 CNS
  TGI: > 100 µM

## COc1ccc(/C=N/n2c(C)nc3c(sc(=S)n3-c3ccccc3)c2=O)cc1
DLD-1 colon
  TGI: > 100 µM
M19-MEL melanoma
  TGI: > 100 µM
